Data on 36 compounds can be found in ChEMBL document CHEMBL1133966, “Substituted imidazoles as glucagon receptor antagonists” (Bioorg Med Chem Lett, 2001).

SMILES strings stand for the structures.

The target in test [1] is T1, Glucagon receptor (Homo sapiens, UniProt P47871). Kind of test: Binding affinity towards human glucagon receptor in absence of Mg2+ expressed as IC50.
In test [2] the target is T1, Glucagon receptor. As to the kind of experiment: Affinity for human glucagon receptor in absence of Mg2+. More on the design: concentration or dose not given beside the values. To be noted: concentration not given here.
The target in test [3] is T2, MAP kinase p38 (Homo sapiens, UniProt O15264+Q15759+Q16539+P53778). As to the kind of experiment: Binding affinity towards human Mitogen-activated protein kinase p38 expressed as IC50. It is filed as protein assay.
Test [4] addresses T1, Glucagon receptor. Kind of test: Affinity for human glucagon receptor in presence of Mg2+.
The target in test [5] is T1, Glucagon receptor. As to the kind of experiment: Binding affinity towards human glucagon receptor in absence of Mg2+. The conditions noted are these: concentration not given here.
The target of test [6] is T2, MAP kinase p38. Kind of test: Inhibition of human Mitogen-activated protein kinase p38 at 40 uM. Format: protein assay.

T1 sequence (P47871 whole entry): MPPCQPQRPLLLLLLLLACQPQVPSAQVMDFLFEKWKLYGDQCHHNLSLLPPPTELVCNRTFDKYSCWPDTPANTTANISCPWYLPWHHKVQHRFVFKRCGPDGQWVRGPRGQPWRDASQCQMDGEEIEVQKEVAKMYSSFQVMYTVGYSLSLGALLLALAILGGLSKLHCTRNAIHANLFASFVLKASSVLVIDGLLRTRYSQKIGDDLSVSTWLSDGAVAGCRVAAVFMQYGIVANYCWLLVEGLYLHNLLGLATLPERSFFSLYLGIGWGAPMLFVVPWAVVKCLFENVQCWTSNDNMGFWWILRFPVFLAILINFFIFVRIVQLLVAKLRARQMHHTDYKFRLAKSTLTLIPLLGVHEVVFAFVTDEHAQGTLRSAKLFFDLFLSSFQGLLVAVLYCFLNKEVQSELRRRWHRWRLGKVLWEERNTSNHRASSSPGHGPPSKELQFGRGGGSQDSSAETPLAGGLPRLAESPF

`Fc1ccc(-c2nc(-c3ccccc3)[nH]c2-c2ccncc2)cc1` showed a concentration for half-maximal inhibition (IC50) at Glucagon receptor [1] above 20000 nM.
Consider `Oc1ccc(-c2[nH]c(-c3ccc(Br)cc3)nc2-c2ccccc2)cc1`, for which the inhibition against Glucagon receptor [2] came to 24%. This compound also displayed an IC50 on MAP kinase p38 [3] of 0.1 µM.
`Clc1ccc(-c2nc(-c3ccc(Cl)cc3)c(-c3ccncc3)[nH]2)cc1`: the 50% inhibitory concentration (IC50) at Glucagon receptor [4] is 2200 nM; at Glucagon receptor [1], 190 nM; on MAP kinase p38 [3] it was 0.023 µM.
With `Clc1ccc(-c2nc(-c3ccc(-c4ccccc4)cc3)c(-c3ccncc3)[nH]2)cc1`, the half-maximal inhibitory concentration (IC50) at Glucagon receptor [4] was found to be 3800 nM; at Glucagon receptor [1] it was 140 nM; at MAP kinase p38 [3], 3.3 µM.
The corresponding values for `Fc1ccc(-c2[nH]c(-c3ccc(Br)cc3)nc2-c2ccncc2)cc1` are 2900 nM, 270 nM and 0.16 µM.
For `Fc1ccc(-c2[nH]c(-c3ccccc3Br)nc2-c2ccncc2)cc1`, the inhibition on Glucagon receptor [5] was below 20%. This compound also returned a half-inhibitory concentration (IC50) on MAP kinase p38 [3] of 0.09 µM.
Regarding `Clc1ccc(-c2nc(-c3ccc(Oc4ccccc4)cc3)c(-c3ccncc3)[nH]2)cc1`, the IC50 was determined as 110 nM at Glucagon receptor [4], 27 nM on Glucagon receptor [1] and 0.25 µM at MAP kinase p38 [3].
For the compound `Oc1ccc(-c2nc(-c3ccc(F)cc3)c(-c3ccncc3)[nH]2)cc1`, at Glucagon receptor [5], the inhibition was below 20%.
As to `Fc1ccc(-c2[nH]c(-c3ccc(Br)o3)nc2-c2ccncc2)cc1`, the inhibition at Glucagon receptor [2] is below 20%. Also, the half-inhibitory concentration (IC50) at MAP kinase p38 [3] turned out to be 0.19 µM.
The corresponding values for `CSc1ccc(-c2nc(-c3ccc(F)cc3)c(-c3ccncc3)n2C)cc1` are 10% and 0.52 µM.
For the compound `CC(C)c1ccc(-c2nc(-c3ccc(F)cc3)c(-c3ccncc3)[nH]2)cc1`, the IC50 on Glucagon receptor [1] is 700 nM; on MAP kinase p38 [3], 0.28 µM.
With `CCCCc1ccc(-c2[nH]c(-c3ccc(Cl)cc3)nc2-c2ccncc2)cc1`, the IC50 on Glucagon receptor [4] is 150 nM; on Glucagon receptor [1], 74 nM; at MAP kinase p38 [3], above 10 µM.
The corresponding values for `Fc1ccc(-c2[nH]c(-c3ccc(Cl)cc3)nc2-c2ccncc2)cc1` are 3200 nM, 400 nM and 0.08 µM.
With `CCCOc1ccc(-c2[nH]c(-c3ccc(Cl)cc3)nc2-c2ccncc2)c(OCCC)c1`, the IC50 was determined as 120 nM on Glucagon receptor [4], 13 nM at Glucagon receptor [1] and 2.4 µM at MAP kinase p38 [3].
Consider `Fc1ccc(-c2[nH]c(-c3ccc(Br)s3)nc2-c2ccncc2)cc1`, for which the figures for the IC50 on Glucagon receptor [1] and on MAP kinase p38 [3] were 2200 nM and 0.11 µM, respectively.
As for `Brc1ccc(-c2nc(-c3ccccc3)c(-c3ccccc3)[nH]2)cc1`, the inhibition at Glucagon receptor [2] was 37%. At MAP kinase p38 [3], this compound displayed an IC50 of 2.2 µM.
The corresponding values for `Fc1ccc(-c2[nH]c(CCc3ccccc3)nc2-c2ccncc2)cc1` are below 20% and 0.13 µM.
Take `Fc1ccc(-c2[nH]c(-c3cccc4ccccc34)nc2-c2ccncc2)cc1`: the figures for the half-maximal inhibitory concentration (IC50) at Glucagon receptor [1] and at MAP kinase p38 [3] were 1500 nM and 0.34 µM, respectively.
Take `Clc1ccc(-c2nc(-c3ccc(I)cc3)c(-c3ccncc3)[nH]2)cc1`: the IC50 is 750 nM on Glucagon receptor [4], 130 nM at Glucagon receptor [1] and 0.14 µM on MAP kinase p38 [3].
Take `Cc1ccc(-c2nc(-c3ccc(F)cc3)c(-c3ccncc3)[nH]2)cc1`: the values for the IC50 at Glucagon receptor [1] and at MAP kinase p38 [3] were 1300 nM and 0.09 µM, respectively.
`Clc1ccc(-c2nc(-c3cccc(-c4ccccc4)c3)c(-c3ccncc3)[nH]2)cc1`: the IC50 on Glucagon receptor [4] was above 3000 nM; on Glucagon receptor [1] it was 61 nM; on MAP kinase p38 [3] it was 0.59 µM.
The corresponding values for `Clc1ccc(-c2nc(-c3cccc(Oc4ccccc4)c3)c(-c3ccncc3)[nH]2)cc1` are 150 nM, 13 nM and 0.22 µM.
For `Cc1cnccc1-c1[nH]c(-c2ccc(Cl)cc2)nc1-c1ccc(F)cc1`, the IC50 at Glucagon receptor [1] was 1100 nM; at MAP kinase p38 [3] it was 0.02 µM.
For the compound `Cc1cc(-c2[nH]c(-c3ccc(Cl)cc3)nc2-c2ccc(F)cc2)ccn1`, at Glucagon receptor [2], the inhibition turned out to be 38%. Also, the half-maximal inhibitory concentration (IC50) on MAP kinase p38 [3] was determined as 0.05 µM.
With `CCCCOc1ccccc1-c1[nH]c(-c2ccc(Cl)cc2)nc1-c1ccncc1`, the IC50 at Glucagon receptor [4] is 110 nM; at Glucagon receptor [1] it was 8.5 nM; on MAP kinase p38 [3], above 1 µM.
Consider `Brc1ccc(-c2nc(-c3ccccc3)c(-c3ccncc3)[nH]2)cc1`, for which the IC50 at Glucagon receptor [1] was 782 nM; on MAP kinase p38 [3] it was 0.04 µM.
The corresponding values for `N#Cc1ccc(-c2nc(-c3ccncc3)c(-c3ccc(F)cc3)[nH]2)cc1` are 8000 nM and 0.21 µM.
The corresponding values for `Fc1ccc(-c2[nH]c(-c3cc(Br)cs3)nc2-c2ccncc2)cc1` are 2800 nM and 0.1 µM.
Regarding `Fc1ccc(-c2[nH]c(-c3ccc(-c4ccccc4)cc3)nc2-c2ccncc2)cc1`, the values for the half-maximal inhibitory concentration (IC50) at Glucagon receptor [1] and on MAP kinase p38 [3] were 10000 nM and 0.3 µM, respectively.
The corresponding values for `Fc1ccc(-c2[nH]c(-c3cccc(Br)c3)nc2-c2ccncc2)cc1` are 1400 nM and 0.15 µM.
The corresponding values for `Fc1ccc(-c2[nH]c(-c3ccc(I)cc3)nc2-c2ccncc2)cc1` are 510 nM and 0.1 µM.
Consider `CC(C)(C)c1ccc(-c2[nH]c(-c3ccc(Cl)cc3)nc2-c2ccncc2)cc1`, for which the 50% inhibitory concentration (IC50) at Glucagon receptor [4] is 3400 nM; at Glucagon receptor [1] it was 130 nM; at MAP kinase p38 [3], above 10 µM.
Regarding `CSc1ccc(-c2nc(-c3ccc(F)cc3)c(-c3ccncc3)o2)cc1`, the inhibition against Glucagon receptor [2] is -8%. The compound further registered an IC50 at MAP kinase p38 [3] of 0.93 µM.
Consider `Clc1ccc(-c2nc(-c3ccccc3Oc3ccccc3)c(-c3ccncc3)[nH]2)cc1`, for which the IC50 at Glucagon receptor [4] amounted to 290 nM; at Glucagon receptor [1], 6.5 nM; at MAP kinase p38 [3], 0.15 µM.
For the compound `CSc1ccc(-c2nc(-c3ccncc3)c(-c3ccc(F)cc3)n2C)cc1`, the inhibition against Glucagon receptor [2] is 38%. This compound also came in with a 50% inhibitory concentration (IC50) on MAP kinase p38 [3] of 0.86 µM.
Consider `CCCCOc1ccc(-c2[nH]c(-c3ccc(Cl)cc3)nc2-c2ccncc2)c(OCCCC)c1`, for which, on MAP kinase p38 [6], the inhibition worked out at 20%. For the same compound, the figures for the 50% inhibitory concentration (IC50) on Glucagon receptor [4] and at Glucagon receptor [1] were 53 nM and 6.5 nM, respectively.

What is called IC50 is the midpoint of a concentration-inhibition curve. As usually defined, the inhibition is the change of the read-out against control, counted positive when it falls.
